{"source": "patent US6936569B2", "about": "“Compositions and methods for protecting cultivated plants from herbicidal injury” (priority 1998, dated 2005)", "key": {"common ragweed": {"test_system": "common ragweed", "conditions": "postemergence application, isoxaflutole 105 g/ha; cited from earlier work"}, "[1]": {"test_system": "ABUTH - velvet-leaf, Abutilon theophrasti Medicus", "assay": "1998 field trial: weed control, velvetleaf", "type": "in vivo", "conditions": "Table 8: field, 60 DAP", "method": "(§1) Conventional tillage experiments were conducted in 1998 to evaluate the influence of SMS and AFS-MTMS, on corn tolerance and weed control from postemergence applications of isoxaflutole alone and in tank-mixture with metolachlor/benoxacor. Experiments were conducted at the Michigan State University Crop and Soil Science Research Farm at East Lansing, Mich. on Capac sandy clay loam soil (fine-loamy, mixed mesic Acric Ochraqualfs) containing 3.1% organic matter with a pH of 6.3 in 1998.\n(§2) Tillage consisted of moldboard plowing in the fall prior to spring disking and field cultivation. Prior to spring cultivation, 320 kg/ha of 46-0-0 fertilizer was applied broadcast. At planting, 140 kg/ha of 6-24-24 fertilizer was applied as a banded treatment 5 cm below and 5 cm beside the corn seeds. Pioneer 37R71 corn was planted on May 11, 1998 at a rate of 62,000 seeds/ha. Each plot was 10.6 m long and consisted of 4 rows spaced 76 cm apart. […]\n(§3) Corn tolerance was evaluated 30 days after planting (DAP) by visually evaluating plants for bleaching and necrotic symptoms and also by measuring corn height (base of plant to the crown) 40 DAP. Weed control by species was visually evaluated 60 DAP. […] Corn grain yield was determined by harvesting the center two rows of each plot with a plot combine. […]"}, "velvetleaf": {"test_system": "velvetleaf", "conditions": "postemergence application, isoxaflutole 105 g/ha; cited from earlier work"}, "[2]": {"test_system": "giant foxtail, Setaria faberi Herrm. (SETFA)", "assay": "1998 field trial: weed control, giant foxtail", "type": "in vivo", "conditions": "Table 8: field, 60 DAP", "method": "as §1, §2, §3"}, "Pioneer 3573 corn": {"test_system": "Pioneer 3573 corn", "assay": "Greenhouse corn tolerance (visual injury, corn height) after postemergence isoxaflutole with or without metolachlor/benoxacor plus test adjuvants (Example 1)", "type": "in vivo, Zea mays", "conditions": "8 DAT", "method": "Various silicone-based compounds were evaluated for ability to prevent herbicidal injury to the corn when used as repellent adjuvants in herbicide formulations. In previous experiments, it was shown that isoxaflutole in combination with metolachlor and benoxacor applied once corn had emerged caused significant corn injury. The basis of this severe injury is the retention and subsequent absorption of isoxaflutole in the foliar tissue of the corn plant, which is exacerbated by the metolachlor herbicide in the composition. Therefore, to address this problem, a number of silicon-based compounds, which were believed to have repellent properties, were evaluated for the ability to prevent injury to corn plants. The compounds evaluated were an aqueous solution of […] sodium methyl siliconate and 67 weight percent water (“SMS”), an aqueous solution of 35.7 weight percent N-(2-aminoethyl)-3-aminopropyltrimethoxysilane, 58.2 weight percent methyltrimethoxysilane, and 6.1 weight percent water (“AFS-MTMS”), methyltrimethoxysilane (“MTMS”), and phosphonate ester alkyl silicon (“PEAS”). These test adjuvants are commercially available from Dow Corning, Midland, Mich. The test adjuvants were applied in combination with isoxaflutole or isoxaflutole in combination with metolachlor and the safener benoxacor, and the ability of the combination to reduce plant injury by inhibiting retention and subsequent absorption of the herbicide was evaluated.\nPioneer 3573 corn seeds (Pioneer 3573, a product of Pioneer Hi-Bred International, Inc., Des Moines, Iowa) were planted 2.54 cm deep, and velvetleaf and barnyardgrass seeds were planted 1.0 cm deep in 875 ml pots containing BACCTO professional greenhouse potting mix (a product of Michigan Peat Co., Houston, Tex.). The seedlings were grown in a greenhouse maintained at 25° C.±2° C. Natural sunlight was supplemented with light from sodium vapor lamps, which provided a total midday light intensity of 1,000 μmol m^−2 s^−1 photosynthetic photon flux at plant height during a 16 hour photoperiod. Plants were watered daily and fertilized weekly with 50 ml of a water soluble fertilizer solution (400 ppm nitrogen, 400 ppm P2O5, and 400 ppm K2O). […]\nThe herbicide compositions were applied through an 8003 E flat fan nozzle (available from Spraying Systems Co., Wheaton, Ill.) delivering 234 L/ha at a pressure of 172 kPa (25 gallons/acre). Corn tolerance was evaluated 8 days after treatment (DAT) by visually evaluating the plants for bleaching and necrotic symptoms and also by measuring corn height (base of the plant to its crown). […] Corn height was measured in cm and presented as a percent of the non-treated plants, with 0 indicating total reduction in plant height and 100 indicating height equal to the non-treated plants. […]"}, "redroot pigweed": {"test_system": "redroot pigweed", "conditions": "postemergence application, isoxaflutole 105 g/ha; cited from earlier work"}, "2-leaf corn": {"test_system": "2-leaf corn", "assay": "Greenhouse corn tolerance (visual injury, corn height) after isoxaflutole with or without acetochlor/MON-13900 plus adjuvants (Example 3)", "type": "in vivo, Zea mays", "conditions": "Table 9: greenhouse, 8 DAT, isoxaflutole 105 g/ha", "method": "This example was performed as in Example 1, except that adjuvants SMS and AFS-MTMS were added to an isoxaflutole tank-mixture that contained an acetochlor herbicide and the safener MON-13900. As in Example 1, the herbicide applications were made to 2-leaf corn, and the herbicide treatments consisted of isoxaflutole at 105 g/ha and isoxaflutole tank-mixed with 1.8 kg/ha of acetochlor/MON-13900 applied either alone or in combination with either NIS at 0.25% (v/v), SMS at 0.5% (v/v), or AFS-MTMS at 0.5% (v/v).\nThe herbicide compositions were applied through an 8003 E flat fan nozzle delivering 234 L/ha at a pressure of 172 kPa. Corn tolerance was evaluated 8 DAT by visually evaluating the plants for bleaching and necrotic symptoms and also by measuring corn height (base of the plant to its crown). Visual corn injury ratings were based on a scale from 0 to 100, with 0 indicating no effect and 100 indicating plant death. Corn height was measured in cm and presented as a percent of the non-treated plants, with 0 indicating total reduction in plant height and 100 indicating height equal to the non-treated plants. All experiments were conducted twice as completely randomized designs with four replications. Data were subjected to analysis of variance and means separated using Fisher's Protected LSD test at a+0.05. […]"}, "[3]": {"test_system": "ZEAMX - corn, Zea mays L.", "type": "in vivo", "conditions": "Table 8: field; for Corn Height: 40 DAP; for Grain Yield: seed weight adjusted to 15% moisture", "method": "as §1\nTillage consisted of moldboard plowing in the fall prior to spring disking and field cultivation. Prior to spring cultivation, 320 kg/ha of 46-0-0 fertilizer was applied broadcast. At planting, 140 kg/ha of 6-24-24 fertilizer was applied as a banded treatment 5 cm below and 5 cm beside the corn seeds. Pioneer 37R71 corn was planted on May 11, 1998 at a rate of 62,000 seeds/ha. Each plot was 10.6 m long and consisted of 4 rows spaced 76 cm apart.\nThe tillage experiments were conducted as a randomized complete block design in a factorial arrangement with three replications. The factors consisted of herbicide application timing and herbicide treatment. Herbicides were applied when the corn was at the 2-leaf and 4-leaf stages. Corn leaf stages are described as the number of visible leaves. Herbicide treatments included isoxaflutole alone (BALANCE) at 105 g/ha and in combination with 1.1 kg/ha of metolachlor/benoxacor (DUAL II). Each of these treatments were applied either alone or with either SMS or AFS-MTMS. Each repellent was used at a rate of 0.5% v/v. Additional treatments not included in the factorial arrangement were an untreated check and a weed-free check. All herbicides were applied with a tractor mounted, compressed-air sprayer calibrated to deliver […] at 207 kPa using 8003 E flat-fan nozzles.\nCorn tolerance was evaluated 30 days after planting (DAP) by visually evaluating plants for bleaching and necrotic symptoms and also by measuring corn height (base of plant to the crown) 40 DAP. Weed control by species was visually evaluated 60 DAP. Visual evaluations were based on a scale of 0 (no effect) to 100% (complete weed or crop death). Corn grain yield was determined by harvesting the center two rows of each plot with a plot combine. Seed weight was adjusted to 15% moisture.\nData were subjected to analysis of variance and means separated using Fisher's Protected LSD test at α=0.05. Data were combined over years when treatment and/or application timing by year interactions were not significant α=0.05. […] Corn height and yield results were converted to a percent of the weed-free treatment after separation.\nCorn (ZEAMX) in the 2-leaf or 4-leaf stage was treated with herbicidal compositions consisting of BALANCE (isoxaflutole); BALANCE and DUAL II (metolachlor and the safener benoxacor); BALANCE and SMS; BALANCE and AFS-MTMS; BALANCE, DUAL II and SMS; or BALANCE, DUAL, and AFS-MTMS. The percent injury was determined 6 DAT, 12 DAT, and 30 DAP. As weed controls, the annual grasses (ANGR) and common lambsquarters, Chenopodium album L. (CHEAL) were treated with herbicidal compositions consisting of BALANCE; BALANCE and DUAL II; BALANCE and SMS; BALANCE and AFS-MTMS; BALANCE, DUAL II and SMS; or BALANCE, DUAL, and AFS-MTMS. The percent injury for the weed controls was determined 30 DAP."}, "[4]": {"test_system": "AMARE redroot pigweed, Amaranthus retroflexus L", "assay": "1998 field trial: weed control, redroot pigweed", "type": "in vivo", "conditions": "Table 8: field, 60 DAP", "method": "as §1, §2, §3"}, "common lambsquarters": {"test_system": "common lambsquarters", "conditions": "postemergence application, isoxaflutole 105 g/ha; cited from earlier work"}, "[5]": {"test_system": "CHEAL - common lambsquarter, Chenopodium album L.", "assay": "1998 field trial: weed control, common lambsquarters", "type": "in vivo", "conditions": "Table 8: field, 60 DAP", "method": "as §1\nTillage consisted of moldboard plowing in the fall prior to spring disking and field cultivation. Prior to spring cultivation, 320 kg/ha of 46-0-0 fertilizer was applied broadcast. […]\nas §3\nCorn (ZEAMX) in the 2-leaf or 4-leaf stage was treated with herbicidal compositions consisting of BALANCE (isoxaflutole); BALANCE and DUAL II (metolachlor and the safener benoxacor); BALANCE and SMS; BALANCE and AFS-MTMS; BALANCE, DUAL II and SMS; or BALANCE, DUAL, and AFS-MTMS. The percent injury was determined 6 DAT, 12 DAT, and 30 DAP. […]"}, "[6]": {"conditions": "Table 3: 2-leaf corn, isoxaflutole 105 g/ha, adjuvant at the rate in the Rate column (0.5% v/v)"}}, "note": "Like-named read-outs stand apart in the source and are kept apart here."}
{"smiles": "CS(=O)(=O)c1cc(C(F)(F)F)ccc1C(=O)c1cnoc1C1CC1", "note": "[Isoxaflutole, 5-cyclopropyl isoxazol-4-4-yl-2-mesyl-trifluoromethylphenyl ketone]", "values": [{"measurement": "control of common ragweed", "setting": "common ragweed", "result": "greater than 90%"}, {"measurement": "Weed Control, ABUTH", "setting": "[1]; 2-leaf application", "result": 99, "unit": "%"}, {"measurement": "Weed Control, ABUTH", "setting": "[1]; 4-leaf application", "result": 100, "unit": "%"}, {"measurement": "control of velvetleaf", "setting": "velvetleaf", "result": "greater than 90%"}, {"measurement": "Weed Control, SETFA", "setting": "[2]; 2-leaf application", "result": 73, "unit": "%"}, {"measurement": "Weed Control, SETFA", "setting": "[2]; 4-leaf application", "result": 70, "unit": "%"}, {"measurement": "Height, Isoxaflutole", "setting": "Pioneer 3573 corn; [6]", "result": "100 % of control"}, {"measurement": "Injury, Isoxaflutole", "setting": "Pioneer 3573 corn; [6]", "result": 2, "unit": "%"}, {"measurement": "% injury to corn", "setting": "Pioneer 3573 corn; greenhouse, 2-leaf corn, adjuvant rate 0%, isoxaflutole 105 g/ha, metolachlor/benoxacor 1.1 kg/ha, scale 0 no effect to 100 plant death", "result": 2, "unit": "%"}, {"measurement": "Corn Height as a Percent of Control", "setting": "Pioneer 3573 corn; greenhouse, adjuvant rate 0%", "result": "100 % of control height"}, {"measurement": "control of redroot pigweed", "setting": "redroot pigweed", "result": "greater than 90%"}, {"measurement": "Height, Isoxaflutole", "setting": "2-leaf corn", "result": "99 % of control"}, {"measurement": "Injury, Isoxaflutole", "setting": "2-leaf corn; NIS 0.25% v/v, SMS or AFS-MTMS 0.5% v/v", "result": 0, "unit": "%"}, {"measurement": "Corn Injury", "setting": "[3]; 2-leaf application, 30 DAP (21 days after application), isoxaflutole 105 g/ha, metolachlor 1121 g/ha, adjuvants 0.5% v/v", "result": 0, "unit": "%"}, {"measurement": "Corn Height", "setting": "[3]; 2-leaf application", "result": 61, "unit": "cm"}, {"measurement": "Grain Yield", "setting": "[3]; 2-leaf application", "result": 10420, "unit": "kg/ha"}, {"measurement": "Corn Injury", "setting": "[3]; 4-leaf application, 30 DAP (15 days after application)", "result": 10, "unit": "%"}, {"measurement": "Corn Height", "setting": "[3]; 4-leaf application", "result": 61, "unit": "cm"}, {"measurement": "Grain Yield", "setting": "[3]; 4-leaf application", "result": 9995, "unit": "kg/ha"}, {"measurement": "Weed Control, AMARE", "setting": "[4]; 2-leaf application", "result": 98, "unit": "%"}, {"measurement": "Weed Control, AMARE", "setting": "[4]; 4-leaf application", "result": 100, "unit": "%"}, {"measurement": "control of common lambsquarters", "setting": "common lambsquarters", "result": "greater than 90%"}, {"measurement": "Weed Control, CHEAL", "setting": "[5]; 2-leaf application", "result": 95, "unit": "%"}, {"measurement": "Weed Control, CHEAL", "setting": "[5]; 4-leaf application", "result": 96, "unit": "%"}]}
